The results in this text go back to ChEMBL document CHEMBL1201862, “PubChem BioAssay data set” (2004).

SMILES strings stand for the structures. Calls of active or inactive are those of the source. Rule as the data show it, for most assays here: actives have a measured IC50 and inactives only a lower limit.

Common to all, as to assay type: functional
Assay [1] has as its target Intestinal-type alkaline phosphatase (Mus musculus, UniProt P24822). Kind of assay: PubChem AID 488785.
Assay [2] concerns the target T1, Alkaline phosphatase, tissue-nonspecific isozyme (Homo sapiens, UniProt P05186).
T1 sequence (P05186 whole entry): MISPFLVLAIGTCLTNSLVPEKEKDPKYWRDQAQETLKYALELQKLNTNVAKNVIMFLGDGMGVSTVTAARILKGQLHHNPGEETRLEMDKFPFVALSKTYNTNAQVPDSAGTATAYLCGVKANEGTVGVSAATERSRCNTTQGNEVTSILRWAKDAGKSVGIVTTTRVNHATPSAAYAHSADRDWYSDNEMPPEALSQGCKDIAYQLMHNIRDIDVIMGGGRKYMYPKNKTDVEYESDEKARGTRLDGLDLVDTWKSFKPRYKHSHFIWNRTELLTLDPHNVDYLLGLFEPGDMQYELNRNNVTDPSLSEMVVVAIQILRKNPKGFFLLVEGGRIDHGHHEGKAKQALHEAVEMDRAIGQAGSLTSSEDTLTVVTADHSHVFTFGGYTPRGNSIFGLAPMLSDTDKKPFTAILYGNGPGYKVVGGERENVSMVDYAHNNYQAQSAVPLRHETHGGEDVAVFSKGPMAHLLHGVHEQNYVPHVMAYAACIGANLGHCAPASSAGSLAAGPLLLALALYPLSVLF
Kind of assay: TNAP enzyme inhibition by screening hits, dose response, selectivity assay for mouse IAP inhibitor project, biochemical, human TNAP, uHTS hits (AID 488906).

Assay [3] concerns the target Intestinal-type alkaline phosphatase (Homo sapiens, UniProt P09923). Kind of assay: inhibition of human intestinal alkaline phosphatase – biochemical, dose response (AID 488876).
The target of assay [4] is T2, Tyrosine-protein phosphatase non-receptor type 7 (Homo sapiens, UniProt P35236).
T2 sequence (P35236 whole entry): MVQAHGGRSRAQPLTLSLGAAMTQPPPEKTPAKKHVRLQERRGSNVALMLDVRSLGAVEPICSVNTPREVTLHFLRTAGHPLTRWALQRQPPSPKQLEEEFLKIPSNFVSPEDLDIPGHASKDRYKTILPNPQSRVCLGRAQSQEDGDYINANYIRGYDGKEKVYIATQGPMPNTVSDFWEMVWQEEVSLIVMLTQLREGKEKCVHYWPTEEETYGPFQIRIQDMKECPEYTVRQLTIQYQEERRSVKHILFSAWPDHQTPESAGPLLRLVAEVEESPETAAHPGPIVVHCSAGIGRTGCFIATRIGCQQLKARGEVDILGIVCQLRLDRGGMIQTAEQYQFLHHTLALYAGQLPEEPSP

The target of assay [5] is T3, Tyrosine-protein phosphatase non-receptor type 22 (Homo sapiens, UniProt Q9Y2R2).
T3 sequence (Q9Y2R2 whole entry): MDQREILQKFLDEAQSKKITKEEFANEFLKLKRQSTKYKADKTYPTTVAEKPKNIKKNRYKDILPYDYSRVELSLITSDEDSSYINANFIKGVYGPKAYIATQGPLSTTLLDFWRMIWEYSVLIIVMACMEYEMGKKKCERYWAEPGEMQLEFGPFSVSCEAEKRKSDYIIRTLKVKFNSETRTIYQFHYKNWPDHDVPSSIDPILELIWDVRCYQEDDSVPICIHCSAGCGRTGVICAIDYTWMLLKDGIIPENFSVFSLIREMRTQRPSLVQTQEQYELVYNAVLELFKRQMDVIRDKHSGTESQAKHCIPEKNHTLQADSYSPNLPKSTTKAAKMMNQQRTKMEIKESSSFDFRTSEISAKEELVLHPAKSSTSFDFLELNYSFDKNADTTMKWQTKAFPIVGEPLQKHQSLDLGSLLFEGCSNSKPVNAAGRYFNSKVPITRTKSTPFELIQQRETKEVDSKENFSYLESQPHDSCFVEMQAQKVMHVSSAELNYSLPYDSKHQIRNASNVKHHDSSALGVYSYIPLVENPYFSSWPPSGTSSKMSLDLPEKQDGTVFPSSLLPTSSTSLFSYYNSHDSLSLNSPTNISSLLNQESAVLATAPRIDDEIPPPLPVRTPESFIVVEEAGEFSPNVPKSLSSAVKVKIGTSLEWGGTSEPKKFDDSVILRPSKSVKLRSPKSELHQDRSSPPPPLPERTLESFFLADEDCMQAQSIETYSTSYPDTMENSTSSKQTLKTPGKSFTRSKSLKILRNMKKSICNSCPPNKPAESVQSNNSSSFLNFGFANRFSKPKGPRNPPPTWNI

Assay [6] addresses T3, Tyrosine-protein phosphatase non-receptor type 22. The source holds these as a separate data set.
Assay [7] has as its target T4, Corticotropin-releasing factor receptor 2/Corticotropin-releasing factor-binding protein (Homo sapiens, UniProt P24387+Q13324).
T4 sequence (Q13324 whole entry): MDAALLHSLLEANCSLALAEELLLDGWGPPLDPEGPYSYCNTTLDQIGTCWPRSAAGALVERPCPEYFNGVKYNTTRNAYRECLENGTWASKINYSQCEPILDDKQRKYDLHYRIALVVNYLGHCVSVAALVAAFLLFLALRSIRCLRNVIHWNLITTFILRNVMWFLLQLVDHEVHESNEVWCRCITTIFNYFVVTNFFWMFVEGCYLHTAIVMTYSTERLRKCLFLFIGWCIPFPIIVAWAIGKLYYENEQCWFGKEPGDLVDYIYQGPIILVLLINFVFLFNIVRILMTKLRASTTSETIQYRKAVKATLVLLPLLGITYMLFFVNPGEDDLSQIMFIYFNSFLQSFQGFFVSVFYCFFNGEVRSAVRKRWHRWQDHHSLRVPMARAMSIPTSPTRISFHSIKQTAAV
T4 sequence (P24387 whole entry): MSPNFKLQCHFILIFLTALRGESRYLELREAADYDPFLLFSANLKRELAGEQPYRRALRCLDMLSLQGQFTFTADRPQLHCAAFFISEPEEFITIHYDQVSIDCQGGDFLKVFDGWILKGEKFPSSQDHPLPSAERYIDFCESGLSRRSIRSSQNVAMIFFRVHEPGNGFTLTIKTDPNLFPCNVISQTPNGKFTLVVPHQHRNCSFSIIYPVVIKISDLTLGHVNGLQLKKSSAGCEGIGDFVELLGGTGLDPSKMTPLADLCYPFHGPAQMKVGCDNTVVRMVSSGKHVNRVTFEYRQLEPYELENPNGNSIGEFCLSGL
Kind of assay: Dose Response confirmation of uHTS hits for small molecule antagonists of the CRF-binding protein and CRF-R2 receptor complex. The note with it: read-out: IC50_Mean.

Assay [8] concerns the target T4, Corticotropin-releasing factor receptor 2/Corticotropin-releasing factor-binding protein. Kind of assay: activators of CRF receptor 2 with binding protein – uHTS hits, confirmation (AID 602473). As to conditions: read-out: EC50_Mean.
Assay [9] concerns the target T5, Ubiquitin-conjugating enzyme E2 N (Homo sapiens, UniProt P61088).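 Also: Dose-response confirmation in a TR-FRET assay detecting UBC13-driven polyubiquitin chain formation, inhibition measured.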
T5 sequence (P61088 whole entry): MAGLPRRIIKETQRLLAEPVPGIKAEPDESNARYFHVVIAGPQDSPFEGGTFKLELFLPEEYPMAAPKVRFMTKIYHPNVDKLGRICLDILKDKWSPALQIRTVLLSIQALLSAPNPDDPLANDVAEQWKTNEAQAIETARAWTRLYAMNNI

Chain of Intestinal-type alkaline phosphatase (Homo sapiens, UniProt P09923) (P09923 whole entry): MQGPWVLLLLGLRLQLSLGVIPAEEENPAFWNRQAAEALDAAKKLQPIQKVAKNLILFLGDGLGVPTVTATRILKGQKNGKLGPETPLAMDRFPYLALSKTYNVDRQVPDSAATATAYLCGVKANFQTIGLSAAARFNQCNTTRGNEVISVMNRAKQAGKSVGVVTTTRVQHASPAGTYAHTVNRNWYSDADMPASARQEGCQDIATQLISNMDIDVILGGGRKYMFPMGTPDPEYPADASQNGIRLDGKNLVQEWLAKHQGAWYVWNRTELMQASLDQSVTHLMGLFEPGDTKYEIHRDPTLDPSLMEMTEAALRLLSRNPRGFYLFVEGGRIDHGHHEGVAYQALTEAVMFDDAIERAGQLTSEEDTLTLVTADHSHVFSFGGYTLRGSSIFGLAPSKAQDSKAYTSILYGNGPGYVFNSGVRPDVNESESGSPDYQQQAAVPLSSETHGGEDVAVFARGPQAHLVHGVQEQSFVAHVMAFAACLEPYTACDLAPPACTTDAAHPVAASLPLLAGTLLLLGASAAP
Chain of Intestinal-type alkaline phosphatase (Mus musculus, UniProt P24822) (P24822 whole entry): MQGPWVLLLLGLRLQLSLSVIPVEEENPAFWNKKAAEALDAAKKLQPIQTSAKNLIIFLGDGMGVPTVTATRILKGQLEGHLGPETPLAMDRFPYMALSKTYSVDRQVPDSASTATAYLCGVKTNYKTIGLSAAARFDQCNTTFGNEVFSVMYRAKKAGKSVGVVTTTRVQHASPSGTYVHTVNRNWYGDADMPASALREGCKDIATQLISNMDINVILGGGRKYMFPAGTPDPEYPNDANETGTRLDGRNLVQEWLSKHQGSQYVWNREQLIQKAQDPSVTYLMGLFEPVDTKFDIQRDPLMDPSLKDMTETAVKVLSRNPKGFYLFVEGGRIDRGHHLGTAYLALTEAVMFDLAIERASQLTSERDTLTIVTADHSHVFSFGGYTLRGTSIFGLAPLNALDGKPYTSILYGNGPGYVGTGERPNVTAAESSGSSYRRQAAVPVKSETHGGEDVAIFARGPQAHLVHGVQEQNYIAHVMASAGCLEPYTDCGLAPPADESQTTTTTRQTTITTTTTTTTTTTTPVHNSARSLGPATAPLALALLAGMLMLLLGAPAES

For the compound `Cc1cc(F)ccc1S(=O)(=O)Nc1ccc(O)c(Sc2nnc[nH]2)c1`, the IC50 in assay [1] is 2.3 µM (active); in assay [2], 5.44 µM (active); in assay [3], 2.12 µM (active).
In the case of `CCOc1ccc(C(=O)Nc2ccc(Cl)cn2)cc1Cl`, the IC50 was > 79.4 µM (inactive) in [4], > 79.4 µM (inactive) in assay [5], > 79.4 µM (inactive) in assay [6] and > 47.1 µM (inactive) in assay [7]. Also, the EC50 in assay [8] is > 53 µM (inactive).
For `Cc1cc(NC(=O)Cn2c(=O)n(CCCCC(=O)NC3CCN(Cc4ccccc4)CC3)c(=O)c3ccccc32)[nH]n1`, the IC50 in assay [4] was > 79.4 µM (inactive); in assay [5], > 79.4 µM (inactive); in assay [9], > 20 µM (inactive); in assay [6], > 79.4 µM (inactive).
